Measured values published in patent US20060100260A1, “Substituted pyrazoline carboxanilides for use as pesticides” (priority 2002, published 2006).

Legend:
[1] = logP determination by HPLC (EEC Directive 79/831 Annex V.A8); assay type: physicochemical; conditions: reversed-phase HPLC column (C 18), pH 2.3, reversed-phase column (C 18), 43° C.
Experimental: The logP values given in the Preparation Examples are determined in accordance with EEC Directive 79/831 Annex V.A8 by HPLC (High Performance Liquid Chromatography) using a reversed-phase column (C 18). Temperature: 43° C.
The determination is carried out in the acidic range at pH 2.3 using the mobile phases 0.1% aqueous phosphoric acid and acetonitrile; linear gradient from 10% acetonitrile to 90% acetonitrile.
Calibration is carried out using unbranched alkan-2-ones (having 3 to 16 carbon atoms) with known logP values (determination of the logP values by the retention times using linear interpolation between two successive alkanones).

[2] = test system: caterpillars of the diamondback moth (Plutella xylostella); test: Plutella test; assay type: in vivo; conditions: active compound concentration 100 ppm; after 7 days; dipped cabbage leaves
Experimental: (§1) [table] To produce a suitable preparation of active compound, 1 part by weight of active compound is mixed with the stated amounts of solvent and emulsifier, and the concentrate is diluted with emulsifier-containing water to the desired concentration. Cabbage leaves (Brassica oleracea) are treated by being dipped into the preparation of active compound of the desired concentration and are populated with caterpillars of the diamondback moth (Plutella xylostella) while the leaves are still moist. After the desired period of time, the kill in % is determined. 100% means that all caterpillars have been killed; 0% means that none of the caterpillars have been killed.

[3] = test system: caterpillars of the armyworm (Spodoptera frugiperda); test: Spodoptera frugiperda test; assay type: in vivo; conditions: active compound concentration 100 ppm; after 7 days; dipped cabbage leaves
Experimental: as §1, with “armyworm (Spodoptera frugiperda)” for “diamondback moth (Plutella xylostella)”

Heliothis armigera = Heliothis armigera test; assay type: in vivo; conditions: active compound concentration 100 ppm; after 7 days; dipped soya bean shoots
[4] = test system: larvae of the mustard beetle (Phaedon cochleariae); test: Phaedon larvae test; assay type: in vivo; conditions: active compound concentration 100 ppm; after 7 days; dipped cabbage leaves
Experimental: as §1, with “with larvae” for “with caterpillars”, “the mustard beetle (Phaedon cochleariae)” for “the diamondback moth (Plutella xylostella)”, “all beetle larvae” for “all caterpillars”, “the beetle larvae” for “the caterpillars”

Compound: N#CCN(C(=O)N1CC(n2cc(Cl)cn2)C(c2ccc(Cl)cc2)=N1)c1ccc(Cl)cc1 (stereo not drawn) [Example 1, 3-(4-chlorophenyl)-4-(4-chloropyrazol-1-yl)-4,5-dihydro-1-pyrazolecarboxylic acid (N-cyanomethyl)-4-chloroanilide]
- chromatographic logP [1]: 3.94
- kill [2]: 100%
- kill [3]: 100%
- kill (Heliothis armigera): 100%
- kill [4]: 100%

Compound: Clc1ccc(C2=NNCC2n2cc(Cl)cn2)cc1 (stereo not drawn) [Example (II-1), 3-(4-chlorophenyl)-4-(4-chloropyrazol-1-yl)-4,5-dihydro-1H-pyrazole]
- chromatographic logP [1]: 2.64
